According to ChEMBL document CHEMBL1201862, “PubChem BioAssay data set” (2004):
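Five compound concentrations were applied to cells in 96-well plates for 48 hours; endpoints were derived by simple linear interpolation of the resulting dose-response curve. At the GI50, growth is halved.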 Active and inactive are the calls of the source. Rule as the data show it: active = GI50 up to about 1.1 µM and inactive = higher.

Key:
Assay in all cases: NCI tumour cell line growth inhibition, 48 h
A498 = tested on: A498
ACHN = tested on: ACHN
HCT-116 = tested on: HCT-116
HOP-92 = tested on: HOP-92
IGROV-1 = tested on: IGROV-1
LOX IMVI = tested on: LOX IMVI
MCF7 = tested on: MCF7
MDA-N = tested on: MDA-N
Malme-3M = tested on: Malme-3M
NCI-H23 = tested on: NCI-H23
OVCAR-3 = tested on: OVCAR-3
OVCAR-5 = tested on: OVCAR-5
SF-539 = tested on: SF-539
SK-MEL-2 = tested on: SK-MEL-2
SK-MEL-5 = tested on: SK-MEL-5
SNB-75 = tested on: SNB-75
TK-10 = tested on: TK-10
U-251 = tested on: U-251
UACC-257 = tested on: UACC-257
HL-60 = tested on: HL-60

| SMILES | GI50 (A498) | GI50 (ACHN) | GI50 (HCT-116) | GI50 (HOP-92) | GI50 (IGROV-1) | GI50 (LOX IMVI) | GI50 (MCF7) | GI50 (MDA-N) | GI50 (Malme-3M) | GI50 (NCI-H23) | GI50 (OVCAR-3) | GI50 (OVCAR-5) | GI50 (SF-539) | GI50 (SK-MEL-2) | GI50 (SK-MEL-5) | GI50 (SNB-75) | GI50 (TK-10) | GI50 (U-251) | GI50 (UACC-257) | GI50 (HL-60) |
| --- | --- | --- | --- | --- | --- | --- | --- | --- | --- | --- | --- | --- | --- | --- | --- | --- | --- | --- | --- | --- |
| O=C1NC(=O)C2(CCCCCC2)N1 | > 100 µM (inactive) | > 100 µM (inactive) | > 100 µM (inactive) | > 100 µM (inactive) | > 100 µM (inactive) | > 100 µM (inactive) | > 100 µM (inactive) | > 100 µM (inactive) | > 100 µM (inactive) | > 100 µM (inactive) | > 100 µM (inactive) | > 100 µM (inactive) | > 100 µM (inactive) | > 100 µM (inactive) | > 100 µM (inactive) | > 100 µM (inactive) | > 100 µM (inactive) | > 100 µM (inactive) | > 100 µM (inactive) |  |
| O=c1nc2n3c4c(cccc4nc-2c(=O)[nH]1)CCC3 |  | > 100 µM (inactive) | 47.5 µM (inactive) |  | > 100 µM (inactive) | > 100 µM (inactive) | 58.3 µM (inactive) | > 100 µM (inactive) | 21.6 µM (inactive) | > 100 µM (inactive) | 14 µM (inactive) | > 100 µM (inactive) | > 100 µM (inactive) | > 100 µM (inactive) | > 100 µM (inactive) | > 100 µM (inactive) | > 100 µM (inactive) | > 100 µM (inactive) | > 100 µM (inactive) | 70.8 µM (inactive) |
| CCCCN(CCCC)CC(O)c1cc(-c2ccc(Cl)c(Cl)c2)nc2c(Cl)cc(Cl)cc12 (stereo not drawn) | > 100 µM (inactive) | 89.1 µM (inactive) | > 100 µM (inactive) |  | > 100 µM (inactive) | 88.1 µM (inactive) | 6.84 µM (inactive) | > 100 µM (inactive) | > 100 µM (inactive) | 49.5 µM (inactive) | > 100 µM (inactive) | > 100 µM (inactive) | > 100 µM (inactive) | > 100 µM (inactive) |  | > 100 µM (inactive) | > 100 µM (inactive) | > 100 µM (inactive) | 86.1 µM (inactive) | 88.3 µM (inactive) |
| CC1=[N+](C)CCN1C |  | > 100 µM (inactive) | > 100 µM (inactive) | > 100 µM (inactive) | > 100 µM (inactive) | > 100 µM (inactive) | > 100 µM (inactive) | > 100 µM (inactive) | > 100 µM (inactive) | > 100 µM (inactive) | > 100 µM (inactive) | > 100 µM (inactive) | > 100 µM (inactive) | > 100 µM (inactive) | > 100 µM (inactive) | > 100 µM (inactive) | > 100 µM (inactive) | > 100 µM (inactive) | > 100 µM (inactive) | > 100 µM (inactive) |
| CC(C)CCc1c(Cl)nc(Cl)nc1Cl |  | 21.2 µM (inactive) | 2.48 µM (inactive) |  | 18 µM (inactive) | 0.726 µM (active) | 13.8 µM (inactive) | 3.98 µM (inactive) | 6.12 µM (inactive) | 8.97 µM (inactive) | 11.9 µM (inactive) | 28.1 µM (inactive) | 24.8 µM (inactive) | 16 µM (inactive) | 4.07 µM (inactive) | 10 µM (inactive) | 21.1 µM (inactive) | 11.8 µM (inactive) | 16.7 µM (inactive) | > 100 µM (inactive) |
| CC[C@H](C)C1=C(OC(C)=O)[N@+]2([O-])Oc3ccc(-c4c(OC(C)=O)c(OC(C)=O)c(-c5ccc(OC(C)=O)cc5)c(OC(C)=O)c4OC(C)=O)cc3O[C@]2([C@@H](C)CC)C(=O)N1OC(C)=O | 14.1 µM (inactive) | 15.5 µM (inactive) | 15.2 µM (inactive) |  | 9.29 µM (inactive) | 10.2 µM (inactive) | 17.5 µM (inactive) | 9.79 µM (inactive) | 15.2 µM (inactive) | 15.7 µM (inactive) | 9.29 µM (inactive) | 29.2 µM (inactive) | 11.2 µM (inactive) | 9.64 µM (inactive) | 10.2 µM (inactive) | 12 µM (inactive) | 15.6 µM (inactive) | 16 µM (inactive) | 13.7 µM (inactive) | 10.5 µM (inactive) |
| CN/N=C(/C=C/c1ccccc1)C(C)C |  | > 100 µM (inactive) | > 100 µM (inactive) |  | > 100 µM (inactive) | > 100 µM (inactive) | > 100 µM (inactive) | > 100 µM (inactive) | > 100 µM (inactive) | > 100 µM (inactive) | > 100 µM (inactive) | > 100 µM (inactive) | > 100 µM (inactive) | > 100 µM (inactive) | > 100 µM (inactive) | > 100 µM (inactive) | > 100 µM (inactive) | > 100 µM (inactive) | > 100 µM (inactive) | > 100 µM (inactive) |
| COc1cc(/N=N/N(C)C)c(C(C)c2c3cc(OC)c(OC)cc3cc[n+]2C)cc1OC (stereo not drawn) | > 100 µM (inactive) | > 100 µM (inactive) | 30 µM (inactive) |  | 36.9 µM (inactive) | 25.2 µM (inactive) | 33.4 µM (inactive) | 34.8 µM (inactive) | 34.4 µM (inactive) | 41.6 µM (inactive) | 26.7 µM (inactive) | > 100 µM (inactive) | 10.3 µM (inactive) | 24.9 µM (inactive) | 21.4 µM (inactive) | 31.6 µM (inactive) | 31.6 µM (inactive) | 38.6 µM (inactive) | 38 µM (inactive) |  |
| Cc1nn(C(=O)Cc2ccccc2)c2c1C(c1ccc(N(C)C)cc1)SC(=N)N2 (stereo not drawn) | > 100 µM (inactive) | > 100 µM (inactive) | > 100 µM (inactive) |  | > 100 µM (inactive) | > 100 µM (inactive) | > 100 µM (inactive) | > 100 µM (inactive) | > 100 µM (inactive) | > 100 µM (inactive) |  |  | 46.1 µM (inactive) |  | > 100 µM (inactive) | 12.4 µM (inactive) | 76.6 µM (inactive) |  | > 100 µM (inactive) | > 100 µM (inactive) |
| CCOC(=O)c1c(C)n(Cc2ccccc2)c2c1cc(O)c1[nH]c3c(c12)CCCC3 |  | 11.3 µM (inactive) | 6.1 µM (inactive) | < 0.01 µM (active) | 3.44 µM (inactive) | 4.85 µM (inactive) | 2.36 µM (inactive) | 13.6 µM (inactive) | 3.79 µM (inactive) | 10.4 µM (inactive) | 2.2 µM (inactive) | 7.08 µM (inactive) | 1.95 µM (inactive) | 2.31 µM (inactive) | 3.98 µM (inactive) |  | 10.6 µM (inactive) | 1.81 µM (inactive) | 17.5 µM (inactive) | 2.41 µM (inactive) |
| Cc1ccc(O)c(Cc2nc3ccccc3nc2-c2cccc(Br)c2)c1 |  | 55.1 µM (inactive) | 48.5 µM (inactive) | > 100 µM (inactive) | 46 µM (inactive) | > 100 µM (inactive) | 37.1 µM (inactive) | > 100 µM (inactive) | > 100 µM (inactive) | > 100 µM (inactive) | > 100 µM (inactive) | > 100 µM (inactive) | > 100 µM (inactive) | > 100 µM (inactive) | > 100 µM (inactive) | > 100 µM (inactive) | > 100 µM (inactive) | > 100 µM (inactive) | 45.7 µM (inactive) | 52.1 µM (inactive) |
| Cc1nc2c(n1CCCl)C(=O)c1ccccc1C2=O |  | 28.9 µM (inactive) | 16.1 µM (inactive) | 29.2 µM (inactive) | 11.6 µM (inactive) |  | 18.9 µM (inactive) | 18.7 µM (inactive) | 5.82 µM (inactive) | 29.9 µM (inactive) | 25.4 µM (inactive) | 19 µM (inactive) | 31.4 µM (inactive) |  | > 10 µM (inactive) | 14.5 µM (inactive) | 26.7 µM (inactive) | 12.6 µM (inactive) | 14.1 µM (inactive) | 16.3 µM (inactive) |
| NNC(=O)COc1nc(-c2cccs2)nc2ccc(I)cc12 |  | 22.5 µM (inactive) | 16.6 µM (inactive) | 18 µM (inactive) | 18.4 µM (inactive) | 17.6 µM (inactive) | 15.8 µM (inactive) | 31.7 µM (inactive) | 17 µM (inactive) | 15.3 µM (inactive) | 15.9 µM (inactive) | 28.4 µM (inactive) |  | 24.5 µM (inactive) | 20.1 µM (inactive) | 22.7 µM (inactive) | 18.2 µM (inactive) | 18.7 µM (inactive) |  |  |
| NC(c1ccccc1)(C(F)(F)F)P1(=O)OC(=O)c2ccccc2O1 (stereo not drawn) | 84.1 µM (inactive) | > 100 µM (inactive) | > 100 µM (inactive) | 20.9 µM (inactive) | > 100 µM (inactive) |  | > 100 µM (inactive) | > 100 µM (inactive) |  | > 100 µM (inactive) | > 100 µM (inactive) | > 100 µM (inactive) | > 100 µM (inactive) | > 100 µM (inactive) | 8.07 µM (inactive) | > 100 µM (inactive) | > 100 µM (inactive) | > 100 µM (inactive) | > 100 µM (inactive) |  |
| CC1N(C)C(=O)OC12CCN(CCCC(=O)c1ccc(F)cc1)CC2 (stereo not drawn) | > 100 µM (inactive) | > 100 µM (inactive) | > 100 µM (inactive) |  | > 100 µM (inactive) | > 100 µM (inactive) | > 100 µM (inactive) | > 100 µM (inactive) | > 100 µM (inactive) | > 100 µM (inactive) | > 100 µM (inactive) | > 100 µM (inactive) | > 100 µM (inactive) | > 100 µM (inactive) | > 100 µM (inactive) | > 100 µM (inactive) | > 100 µM (inactive) | > 100 µM (inactive) | > 100 µM (inactive) | > 100 µM (inactive) |
